Source: paper PMC7139549, “TLD1433 Photosensitizer Inhibits Conjunctival Melanoma Cells in Zebrafish Ectopic and Orthotopic Tumour Models” (Cancers, 2020)

Tests used:
[1] = test system: CRMM1 engrafted cells in zebrafish orthotopic model; experiment: In situ TUNEL assay, CRMM1 orthotopic zebrafish model; type: in vivo, Zebrafish (Danio rerio); details: RO 2.3 mM
Method: In situ TUNEL assay on fixed embryos was used to detect TLD1433 induced apoptosis in zebrafish CRMM1 and CRMM2 orthotopic tumour models at 4 dpi after light activation of 2.3 mM TLD1433, administrated by retro orbital injection. The DNA strand breaks in apoptotic tumour cells were stained with fluorescein and visualized as a green signal.
Figure 10 TUNEL assay of in CRMM1 and CRMM2 orthotopic model after RO of TLD1433. Red fluorescent CRMM1 (A) and CRMM2 (B) cells were injected at 2dpf behind the ZF eye and divided into four groups for drug treatment. RO administration of vehicle control and TLD1433 was performed as described in Figure 9C,E. After dark or light exposure (21 mW/cm^2, 114 J.cm^−2, 520 nm) embryos were fixed and TUNEL staining was performed. Representative images of embryos are shown in this figure. (A,B) In TLD1433 light groups nuclear DNA fragmentation by nucleases is detected by co-localization of green (DNA fragments) and red signal of engrafted CM cells, depicted as yellow signal and marked by white arrows. In control dark, control light, TLD1433 dark, there are no positive green apoptotic tumour cells observed. […] Experiment was performed 3 times with a group size of 10 embryos.
The zebrafish larvae were fixed overnight with 4% PFA at 4 °C. Embryos were washed in PBST for 5 min and dehydrated by a graded methanol series until reaching 100% methanol. […]

[2] = test system: CRMM2 cells injected into the Duct of Cuvier of zebrafish embryos; experiment: Zebrafish ectopic CM tumour model, CRMM2; type: in vivo, Zebrafish (Danio rerio); details: for PI (Fluorescence Intensity) / PI (Tumour Area) / Relative Tumour Burden as Measured by Fluorescence Intensity / Tumour Area: CRMM2, Ectopic Model; for PI (Fluorescence Intensity) / PI (Tumour Area): 0 vs 114 J.cm^−2
Method: The zebrafish ectopic conjunctival melanoma tumour model has been described previously. In this model, around 200 fluorescent CM cells are injected into the Duct of Cuvier at 2 dpf, and then disseminate through the blood circulation and grow in the head and tail. To establish the orthotopic tumour model, around 100 red, (td)Tomato fluorescent CRMM1 or CRMM2 cells were injected RO at 2 dpf into tg(Fli:GFP/Casper), endothelial reporter transgenic zebrafish with green fluorescent vasculature and examined by fluorescent microscopy at day 1 and 4 after engraftment (Figure 6A). Tumour expansion at the injection site was measured as fluorescence intensity and tumour area.
For cancer cell injection, two days post-fertilization (dpf), dechorionated zebrafish embryos were anaesthetized with 0.003% tricaine (Sigma) and plated on a 10 cm Petri dish covered with 1.5% of solidified agarose. CRMM1 and CRMM2 cells were suspended in PBS containing 2% polyvinylpyrrolidone (PVP; Sigma-Aldrich) with a concentration of 50,000 cells/µL and loaded into borosilicate glass capillary needles (1 mm O.D. × 0.78 mm I.D.; Harvard Apparatus). In the ectopic model, 200 (td)Tomato fluorescent CM cells were injected into the Duct of Cuvier or at 2 dpf, which led to dissemination through the blood circulation and outgrowth in the head and tail. In orthotopic tumour model, 100 (td)Tomato fluorescent CRMM1 or CRMM2 cells were injected RO in 2 dpf embryos using a Pneumatic Picopump and a manipulator (WPI). After injection, the embryos were incubated in a 34 °C incubator. Images were acquired at 1-, 2- and 4-days post injection (dpi) with a Leica M165 FC stereo fluorescence microscope. Tumor growth was quantified by calculating the total fluorescence intensity and area with the ZF4 pixel counting program (Leiden). Each experiment was performed at least 3 times with a group size of >30 embryos.
Fluorescent CRMM1 and CRMM2 cells were injected at 2 dpf into the Duct of Cuvier (ectopic model) and behind the eye (orthotopic model) and TLD1433 was delivered by WA, IV and RO administration with or without a light treatment as described in 4.8. For the WA administration, the 4.6 nM TLD1433 solution was added to the tumour cells injected zebrafish at 2.5, 3.5, 4.5, 5.5 dpf and maintained for 12 h. At 3, 4, 5, 6 dpf, the fish water was refreshed, and after 1 h, embryos were exposed to green light for 90 min (21 mW/cm^2, 114 J/cm^2, 520 nm). For the IV and RO administration, 1 nL of 2.3 mM TLD1433 solution was injected via the dorsal vein or the RO site at 3, 4, 5, 6 dpf. After 1 h interval, the embryos were exposed to green light for 90 min (21 mW/cm^2, 114 J/cm^2, 520 nm). After treatment, the embryos images were acquired with a Leica M165 FC stereo fluorescence microscope. Tumor growth was quantified by calculating the total fluorescence intensity and area with the ZF4 pixel counting program (Leiden). Each experiment was performed at least 3 times with a group size of >30 embryos.

[3] = Intravenous (1 nL of 2.3 mM), Light Dose 0 J.cm^−2, vs control dark group (100%)
[4] = Intravenous (1 nL of 2.3 mM), Light Dose 114 J.cm^−2, vs control dark group (100%)
[5] = Water (4.6 nM), Light dose 0 J.cm^−2, vs control dark group (100%)
[6] = Water (4.6 nM), Light dose 114 J.cm^−2, vs control dark group (100%)
[7] = CRMM2, ectopic model, IV 2.3 mM, light 114 J.cm^−2
[8] = CRMM2, ectopic model, RO 2.3 mM, green light 114 J.cm^−2

Question: With `Cc1ccnc(-c2cc(C)ccn2)c1.Cc1ccnc(-c2cc(C)ccn2)c1.[Cl-].[Cl-].[Ru+2].c1csc(-c2ccc(-c3ccc(-c4nc5c6cccnc6c6ncccc6c5[nH]4)s3)s2)c1` [TLD1433] as the compound, how does the “TUNEL apoptosis of engrafted cells (in words)” value ([1]; dark, 4 dpi) read?
Answer: no positive green signal detected

Question: What about the “TUNEL apoptosis of engrafted cells (in words)” value ([1]; light 114 J.cm^−2, 4 dpi) of the same compound?
Answer: induced CRMM1 and CRMM2 cell apoptosis

Question: What about the “PI (Fluorescence Intensity)” value ([2]; Intravenous (1 nL of 2.3 mM)) of the same compound?
Answer: 1.4

Question: What about the “PI (Tumour Area)” value ([2]; Intravenous (1 nL of 2.3 mM)) of the same compound?
Answer: 2.0

Question: What about the “Relative Tumour Burden as Measured by Fluorescence Intensity” value (“Relative Tumour Burden as Measured” for short) [2, 3] of the same compound?
Answer: 97%

Question: What about the “Tumour Area” value [2, 3] of the same compound?
Answer: 99%

Question: What about the “Relative Tumour Burden as Measured” value [2, 4] of the same compound?
Answer: 69%

Question: What about the “Tumour Area” value [2, 4] of the same compound?
Answer: 50%

Question: What about the “PI (Tumour Area)” value ([2]; Retro orbital (1 nL of 2.3 mM)) of the same compound?
Answer: 2.0

Question: What about the “Tumour Area” value ([2]; Retro orbital (1 nL of 2.3 mM), Light dose 0 J.cm^−2, vs control dark group (100%)) of the same compound?
Answer: 94%

Question: And the “Tumour Area” value ([2]; Retro orbital (1 nL of 2.3 mM), Light dose 114 J.cm^−2, vs control dark group (100%))?
Answer: 48%

Question: And the “PI (Fluorescence Intensity)” value ([2]; Retro-orbital (1 nL of 2.3 mM))?
Answer: 1.6

Question: What about the “Relative Tumour Burden as Measured” value ([2]; Retro-orbital (1 nL of 2.3 mM), Light Dose 0 J.cm^−2, vs control dark group (100%)) of the same compound?
Answer: 93%

Question: What about the “Relative Tumour Burden as Measured” value ([2]; Retro-orbital (1 nL of 2.3 mM), Light Dose 114 J.cm^−2, vs control dark group (100%)) of the same compound?
Answer: 60%

Question: What about the “PI (Fluorescence Intensity)” value ([2]; Water (4.6 nM)) of the same compound?
Answer: 0.93

Question: What about the “PI (Tumour Area)” value ([2]; Water (4.6 nM)) of the same compound?
Answer: 0.90

Question: And the “Relative Tumour Burden as Measured” value [2, 5]?
Answer: 90%

Question: And the “Tumour Area” value [2, 5]?
Answer: 92%

Question: What about the “Relative Tumour Burden as Measured” value [2, 6] of the same compound?
Answer: 96%

Question: And the “Tumour Area” value [2, 6]?
Answer: 102%

Question: And the “inhibition of tumour area” value [2, 7]?
Answer: 50%

Question: And the “inhibition of tumour fluorescence intensity” value [2, 7]?
Answer: 31%

Question: And the diminished fluorescence intensity [2, 8]?
Answer: 40%

Question: What about the diminished tumour area [2, 8] of the same compound?
Answer: 52%

Question: What about the “effect on tumour burden (in words)” value ([2]; CRMM2, ectopic model, WA at the MTD (4.6 nM), light 114 J.cm^−2) of the same compound?
Answer: did not inhibit tumour burden
